According to patent US11519901B2, “Method for screening for cancer therapeutic agent” (THE UNIVERSITY OF TOKYO, priority 2015, dated 2022):
Read-outs that look alike come from different tables or passages of the source.

How the values were obtained:
[1] = test system: HER2-amplified breast cancer cell line SK-BR3; test: PODXL expression by RT-PCR in SK-BR3 introduced with reprogramming factor (4F); assay type: cell-based, human; conditions: 4F-introduced SK-BR3, treated with IC50 concentration of drug
Protocol: (§1) In FIG. 2, FIG. 2A is a schematic drawing describing a method of introducing reprogramming factor, MYOD1 or GFP and siRNA into MP-CCS-SY cell line. […] FIG. 2C is a schematic drawing describing introduction of a reprogramming factor into HCC827 or SK-BR3 cell line and a method of addition of each medicament.
(§2) RT-PCR was performed using the following method. Using RNeasy Plus Mini kit (Qiagen, Hilden, Germany), the total RNA was isolated. Using Go-taq qPCR Master Mix (Promega, Madison, USA), quantitative real-time PCR analysis was performed. The transcription level was standardized based on β-actin or GAPDH value.
(§3) Besides the above, an influence of the activation of oncogene signal on cell reprogramming was examined. Epithelial growth factor receptor (EGFR) mutated lung cancer cell line HCC827 and HER2-amplified breast cancer cell line SK-BR3 were used for the experiment. These cancer cell lines are sensitive to EGFR specific tyrosine kinase and HER2 tyrosine kinase inhibitor, respectively. […] Change of gene expression with or without introduction of 4F into HCC827 and SK-BR3 was examined by microarray analysis.

[2] = test system: HCC827 cell line; conditions: HCC827, Dox(4F)+, two days
Protocol: as §2
(§4) Using a combination of a cancer cell sensitive to a certain kind of anticancer agent and a cancer cell not sensitive to a certain kind of anticancer agent, an influence of a drug-specific cell on the reprogramming was examined. […] Two days later, RNA was extracted from the cells, and the expression levels of NANOG and GDF3 were measured by quantitative RT-PCR (FIG. 5A).

[3] = test system: EGFR mutated lung cancer cell line HCC827; test: PODXL expression by RT-PCR in HCC827 introduced with reprogramming factor (4F); assay type: cell-based, human; conditions: 4F-introduced HCC827, treated with IC50 concentration of drug
Protocol: as §1, §2, §3

[4] = test system: HER2-amplified breast cancer cell line SK-BR3; conditions: stated as known; cited from earlier work
[5] = test system: SK-BR3 cell line; test: NANOG and GDF3 expression by quantitative RT-PCR in 4F-induced SK-BR3; assay type: cell-based, human; conditions: SK-BR3, Dox(4F)+, two days
Protocol: as §2, §4

[6] = test system: EGFR mutation lung cancer cell line HCC827; conditions: stated as known; cited from earlier work
[7] = test system: SK-BR3 cell line; test: Microarray analysis of gene expression change with or without 4F in SK-BR3; assay type: cell-based, human; conditions: SK-BR3 with or without 4F introduction
Description: as §1, §3

[8] = Imatinib 1 or 10 μM, 5-FU 10 or 50 μM (FIG. 5B legend)

In the case of `O=c1[nH]cc(F)c(=O)[nH]1` [5FU, 5-fluorouracil], the “expression of reprogramming marker PODXL” value [1] is reported as “did not increase”, the “expression of GDF3” value [2, 8] is reported as “did not promote” and the “expression of NANOG” value [2, 8] is reported as “did not promote”. The PODXL expression [3] was “did not increase”.
In the case of `CS(=O)(=O)CCNCc1ccc(-c2ccc3ncnc(Nc4ccc(OCc5cccc(F)c5)c(Cl)c4)c3c2)o1` [lapatinib], the “expression of reprogramming marker PODXL” value [1] is listed as “promoted”, the “sensitivity of cell line to drug” value [4] is listed as “sensitive” and the “expression of GDF3” value ([5]; 0.05 μM) is listed as “promoted”. For the same molecule, the “expression of NANOG” value ([5]; 0.05 μM) was “promoted”, the “expression of GDF3” value ([5]; 0.5 μM) was “promoted” and the “expression of NANOG” value ([5]; 0.5 μM) was “promoted”. For the same molecule, the “expression of GDF3” value ([2]; 0.5 μM) was “promoted”, the “expression of NANOG” value ([2]; 0.5 μM) was “promoted” and the “sensitivity of cell line to drug” value [6] was “sensitive”. For the same molecule, the “change of gene expression (many genes including PODXL and NANOG), microarray” value [7] was “upregulated or downregulated”.
